Patent US8992783B2, “Process for enantioseparation of chiral systems with compound formation using two subsequent crystallization steps” (Max-Planck-Gessellschaft zur Förderung der Wissenschaften …, priority 2008, dated 2015)
Read-outs that look alike come from different tables or passages of the source.

Conditions: methionine enantiomers in water

Structure (SMILES): CSCC[C@H](N)C(=O)O (racemic) [methionine]
- Solubility at eutectic composition (274.15 K): ′ 3.83 wt %
- Solubility at eutectic composition (333.15 K): ′ 9.38 wt %
